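1) Cells in 96-well plates. 2) Compound, 48 h, 5 concentrations. 3) Linear interpolation between surrounding doses. 4) Unreached endpoint = highest concentration. At the GI50, growth is halved. At the TGI there is no net growth.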
Key:
Experiment in all cases: NCI tumour cell line growth inhibition, 48 h
786-0 renal = test system: 786-0 renal
CCRF-CEM leukemia = test system: CCRF-CEM leukemia
IGROV1 ovarian = test system: IGROV1 ovarian
K-562 leukemia = test system: K-562 leukemia
OVCAR-4 ovarian = test system: OVCAR-4 ovarian
RXF 393 renal = test system: RXF 393 renal
SF-268 CNS = test system: SF-268 CNS
SNB-19 CNS = test system: SNB-19 CNS
SNB-75 CNS = test system: SNB-75 CNS
LOX IMVI melanoma = test system: LOX IMVI melanoma

SMILES	GI50 (786-0 renal)	TGI (786-0 renal)	GI50 (CCRF-CEM leukemia)	TGI (CCRF-CEM leukemia)	GI50 (IGROV1 ovarian)	TGI (IGROV1 ovarian)	GI50 (K-562 leukemia)	TGI (K-562 leukemia)	GI50 (OVCAR-4 ovarian)	TGI (OVCAR-4 ovarian)	GI50 (RXF 393 renal)	TGI (RXF 393 renal)	GI50 (SF-268 CNS)	TGI (SF-268 CNS)	GI50 (SNB-19 CNS)	TGI (SNB-19 CNS)	GI50 (SNB-75 CNS)	TGI (SNB-75 CNS)	GI50 (LOX IMVI melanoma)	TGI (LOX IMVI melanoma)
Cn1cc(-c2nonc2-c2cn(C)c3ccc(Br)cc23)c2ccccc21	6.18 µM	> 100 µM	3.37 µM	> 100 µM	5.13 µM	> 100 µM	1.08 µM	> 100 µM	5.95 µM	> 100 µM	1.99 µM	5.46 µM	5.79 µM	> 100 µM	5.33 µM	> 100 µM	1.77 µM	7.71 µM	–	–
CC(=O)[CH-]C(=O)c1ccccc1.CC(=O)[CH-]C(=O)c1ccccc1.[O-]Cc1cccs1.[O-]Cc1cccs1.[Ti+4]	> 100 µM	> 100 µM	–	–	89.9 µM	> 100 µM	31.2 µM	> 100 µM	> 100 µM	> 100 µM	–	–	> 100 µM	> 100 µM	> 100 µM	> 100 µM	73.1 µM	> 100 µM	18.1 µM	58 µM
OCCC#Cc1ccccc1C#Cc1ccccc1	16.1 µM	31.3 µM	25.9 µM	> 100 µM	33.4 µM	> 100 µM	11 µM	> 100 µM	24.1 µM	72.4 µM	–	–	16.5 µM	33.9 µM	28.1 µM	> 100 µM	19.8 µM	53.4 µM	–	–
Nc1cc2c3c(cccc3c1)C(=O)N(CCN1CCN(CCN3C(=O)c4cccc5cc(N)cc(c45)C3=O)CC1)C2=O	–	> 100 µM	–	> 100 µM	–	> 100 µM	–	> 100 µM	–	> 100 µM	–	> 100 µM	–	> 100 µM	–	> 100 µM	–	> 100 µM	–	–
COC(=O)C12C3C=CC(O3)C1C1C=CC2O1 (centres undefined)	–	> 100 µM	–	> 100 µM	–	> 100 µM	–	> 100 µM	–	–	–	> 100 µM	–	> 100 µM	–	> 100 µM	–	–	–	–
COc1cc(C2c3cc4c(cc3[C@@H](OCCN)[C@H]3COC(=O)C23)OCO4)cc(OC)c1O (some centres undefined)	–	0.437 µM	–	0.0409 µM	–	4.55 µM	–	–	–	5.79 µM	–	2.35 µM	–	1.48 µM	–	1.93 µM	–	2.43 µM	–	0.395 µM
c1ccc(CNc2nc(Nc3ccc(-c4nc5ccccc5[nH]4)cc3)c3cn[nH]c3n2)cc1	1.77 µM	3.73 µM	3.62 µM	> 100 µM	2.49 µM	6.99 µM	–	–	2.28 µM	7.14 µM	1.57 µM	3.65 µM	2.37 µM	7.1 µM	4.27 µM	31.3 µM	5.12 µM	47.1 µM	1.69 µM	3.36 µM
Cn1c(=O)c2c(nc3n2C(CCl)CO3)n(C)c1=O (centres undefined)	–	> 100 µM	–	> 100 µM	–	> 100 µM	–	> 100 µM	–	> 100 µM	–	–	–	> 100 µM	–	> 100 µM	–	> 100 µM	–	–
O=C(Nc1ccc(Cl)cc1)C(=O)C1=C(O)c2ccccc2OC1	–	> 100 µM	–	> 100 µM	–	> 100 µM	–	> 100 µM	–	> 100 µM	–	–	–	> 100 µM	–	> 100 µM	–	> 100 µM	–	> 100 µM
C=C1C(=O)C23C(O)C1CCC2C12CO[C@]3(O)[C@@H](O)C1C(C)(C)CCC2O (some centres undefined)	–	25.1 µM	–	5.98 µM	–	20.3 µM	–	> 100 µM	–	–	–	20.6 µM	–	28.8 µM	–	28.6 µM	–	29.3 µM	–	31.4 µM
CC1(C)CC[C@]2(C(=O)O)CCC3(C)C(=CCC4[C@@]5(C)CC[C@H](OC6OCC(O)C(O)C6OC6OC(CO)C(O)C(O)C6O)C(C)(C)C5CC[C@]43C)C2C1 (some centres undefined)	–	4.02 µM	–	–	–	5.23 µM	–	–	–	3.05 µM	–	3.53 µM	–	4.61 µM	–	3.7 µM	–	4.6 µM	–	4.18 µM
COc1cccc(C2C3=C(COC3=O)N(CCO)c3cc4c(cc32)CCC4)c1 (centres undefined)	0.0731 µM	10.8 µM	0.122 µM	> 50 µM	0.0169 µM	0.0692 µM	0.0279 µM	8.81 µM	0.114 µM	> 50 µM	–	–	0.0731 µM	5.93 µM	0.0468 µM	0.321 µM	0.0236 µM	0.397 µM	0.0934 µM	> 37.1 µM
CCOC(=O)c1c(-c2ccccc2)[nH]c2ccccc2c1=O	–	> 100 µM	–	–	–	> 100 µM	–	> 100 µM	–	> 100 µM	–	> 100 µM	–	> 100 µM	–	> 100 µM	–	> 100 µM	–	–
COC(=O)[C@@]12C3=NO[C@]1(C(=O)OC)C(O[Si](C)(C)C(C)(C)C)C1OC(C)(C)OC1[C@@H]2[C@@H](OCc1ccccc1)CC3 (some centres undefined)	–	> 100 µM	–	> 100 µM	–	> 100 µM	–	> 100 µM	–	> 100 µM	–	–	–	–	–	> 100 µM	–	> 100 µM	–	> 100 µM
Clc1ccc(C2=NN(c3ccccc3)C3c4cc(Br)ccc4OCC23)cc1 (centres undefined)	–	> 100 µM	–	> 100 µM	–	> 100 µM	–	> 100 µM	–	–	–	> 100 µM	–	> 100 µM	–	> 100 µM	–	> 100 µM	–	> 100 µM
N/C(=N\N=C=C1C(=O)Nc2ccc(F)cc21)NO	–	> 100 µM	–	> 100 µM	–	> 100 µM	–	> 100 µM	–	> 100 µM	–	> 100 µM	–	> 100 µM	–	–	–	65.9 µM	–	> 100 µM
Cc1nc(N=C(N)N)nc2ccc3ccccc3c12	1.11 µM	3.01 µM	1.76 µM	6.01 µM	1.53 µM	7.87 µM	1.43 µM	6.13 µM	1.44 µM	5.1 µM	–	–	0.505 µM	2.55 µM	0.942 µM	4.89 µM	0.524 µM	1.97 µM	1.57 µM	3.18 µM
CN(C)c1ccc(N=C(C#N)c2nc(N)nc(N3CCOCC3)n2)cc1	35.6 µM	> 100 µM	97.2 µM	> 100 µM	34 µM	> 100 µM	62.1 µM	> 100 µM	46.6 µM	> 100 µM	27.5 µM	70.1 µM	–	–	> 100 µM	> 100 µM	18.7 µM	49.4 µM	22.1 µM	53.5 µM
Cc1cc(N(CCC#N)CCC#N)ccc1N=Nc1ccc([N+](=O)[O-])cc1	–	> 100 µM	–	> 100 µM	–	–	–	> 100 µM	–	44.1 µM	–	> 100 µM	–	> 100 µM	–	57.3 µM	–	> 10 µM	–	80.6 µM
